Source: patent publication US20240024444A1, “Combined Preparation” (MEDRx Co., Ltd., priority 2020, published 2024)

Experiment: In vitro skin permeability test (Franz diffusion cell)
Type: in vitro ADME, rat (Slc: Wistar)
Method: In this test, a Franz diffusion cell (effective diffusion area: 1.0 cm^2, PermeGear, Hellertown, US) was used, and the abdominal skin (shaved before the skin is removed) of 5-week-old male rats (Slc: Wistar) was used.
The abdominal skin of rats was cut to about […] (23 mm round) and set in a receptor cell filled with 8.0 mL of the receptor solution (saline of 0.1% bovine serum albumin (BSA) (purchased from FUJIFILM Wako Pure Chemical Corporation)). The receptor solution was kept at 32° C. in a circulator water bath at a constant temperature. After 2, 4, 6, 8 and 24 hours, the receptor solution (0.2 mL) was collected and each of the collected solution was used as samples. After collecting the samples, the same amount of the receptor solution was added into the receptor cell to keep the volume of the receptor solution constant. […] The HPLC condition was as follows: Column: YMC Pack Pro C18 RS 5 μm, 4.6×150 mm; YMC CO., LTD., Mobile Phase: acetonitrile/0.1% trifluoroacetic acid (23/77, v/v) at 35° C., Flow Rate: 1.0 mL/min. The wavelength of the UV detector was set to 215 nm.

- accumulative amount of the co-administered R848 for 24 hours (R848 co-administered with WT1 peptide): about 350 μg/cm^2
- accumulative amount of the individually-administered R848 for 24 hours (R848 individually administered): about 1500 μg/cm^2
Structure (SMILES): CCOCc1nc2c(N)nc3ccccc3c2n1CC(C)(C)O [R848, Resiquimod]
